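Each compound was tested at five concentrations against cells in 96-well plates for 48 hours. The concentration for 50% growth inhibition is given as GI50.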 Calls of active or inactive are those of the source. Cut-off read from the data, not from the text of the source: active = GI50 up to about 1.1 µM and inactive = higher.
Tests used:
Assay in all cases: NCI tumour cell line growth inhibition, 48 h
[1] = test system: 786-0
[2] = test system: A498
[3] = test system: A549
[4] = test system: ACHN
[5] = test system: BT-549
[6] = test system: CAKI-1
[7] = test system: CCRF-CEM
[8] = test system: COLO 205
[9] = test system: DU-145
[10] = test system: EKVX
[11] = test system: HCC 2998
[12] = test system: HCT-116
[13] = test system: HCT-15
[14] = test system: HOP-62
[15] = test system: HOP-92
[16] = test system: HT-29
[17] = test system: Hs-578T
[18] = test system: IGROV-1
[19] = test system: K562
[20] = test system: KM12
[21] = test system: M14
[22] = test system: MCF7
[23] = test system: MDA-MB-231
[24] = test system: MDA-MB-435
[25] = test system: MDA-N
[26] = test system: MOLT-4
[27] = test system: Malme-3M
[28] = test system: NCI-H226
[29] = test system: NCI-H23
[30] = test system: NCI-H460
[31] = test system: NCI-H522
[32] = test system: NCI/ADR-RES
[33] = test system: OVCAR-3
[34] = test system: OVCAR-4
[35] = test system: OVCAR-5
[36] = test system: OVCAR-8
[37] = test system: PC-3
[38] = test system: RPMI-8226
[39] = test system: RXF 393
[40] = test system: SF-268
[41] = test system: SF-295
[42] = test system: SF-539
[43] = test system: SK-MEL-2
[44] = test system: SK-MEL-5
[45] = test system: SK-OV-3
[46] = test system: SN12C
[47] = test system: SNB-19
[48] = test system: SNB-75
[49] = test system: SR
[50] = test system: SW-620
[51] = test system: TK-10
[52] = test system: U-251
[53] = test system: UACC-62
[54] = test system: UO-31
[55] = test system: HL-60
[56] = test system: LOX IMVI
[57] = test system: SK-MEL-28
[58] = test system: UACC-257

Compound: CC(C)(CN1CCCCC1)C(=O)CC(SCCS(=O)(=O)O)c1ccccc1 (configuration not stated)
- GI50 [1]: 11 µM (inactive)
- GI50 [2]: 14.9 µM (inactive)
- GI50 [3]: 27.4 µM (inactive)
- GI50 [4]: 16.9 µM (inactive)
- GI50 [5]: 15.3 µM (inactive)
- GI50 [6]: 15.5 µM (inactive)
- GI50 [7]: 5.16 µM (inactive)
- GI50 [8]: 13.6 µM (inactive)
- GI50 [9]: 11.2 µM (inactive)
- GI50 [10]: 14.1 µM (inactive)
- GI50 [11]: 23.3 µM (inactive)
- GI50 [12]: 5.9 µM (inactive)
- GI50 [13]: 8.57 µM
- GI50 [14]: 30.8 µM (inactive)
- GI50 [15]: 5.64 µM (inactive)
- GI50 [16]: 11.4 µM (inactive)
- GI50 [17]: 36.1 µM (inactive)
- GI50 [18]: 26.4 µM (inactive)
- GI50 [19]: 2.7 µM (inactive)
- GI50 [20]: 18.5 µM (inactive)
- GI50 [21]: 9.38 µM (inactive)
- GI50 [22]: 10.2 µM (inactive)
- GI50 [23]: 13.7 µM (inactive)
- GI50 [24]: 11.3 µM (inactive)
- GI50 [25]: 16.3 µM (inactive)
- GI50 [26]: 11.3 µM (inactive)
- GI50 [27]: 12.7 µM (inactive)
- GI50 [28]: 27.7 µM (inactive)
- GI50 [29]: > 10 µM (inactive)
- GI50 [30]: 11.9 µM (inactive)
- GI50 [31]: 3.11 µM (inactive)
- GI50 [32]: 13.4 µM (inactive)
- GI50 [33]: 5.87 µM (inactive)
- GI50 [34]: 17.6 µM (inactive)
- GI50 [35]: 11.6 µM (inactive)
- GI50 [36]: 18.8 µM (inactive)
- GI50 [37]: 22.9 µM (inactive)
- GI50 [38]: 23.2 µM (inactive)
- GI50 [39]: 10.8 µM (inactive)
- GI50 [40]: 10 µM (inactive)
- GI50 [41]: 10.9 µM (inactive)
- GI50 [42]: 12.6 µM (inactive)
- GI50 [43]: 37.9 µM (inactive)
- GI50 [44]: 16.3 µM (inactive)
- GI50 [45]: 55 µM (inactive)
- GI50 [46]: 20 µM (inactive)
- GI50 [47]: 17.5 µM (inactive)
- GI50 [48]: 20.4 µM (inactive)
- GI50 [49]: 466 nM (active)
- GI50 [50]: 11.1 µM (inactive)
- GI50 [51]: 16.9 µM (inactive)
- GI50 [52]: 21.6 µM (inactive)
- GI50 [53]: 14 µM (inactive)
- GI50 [54]: 12.1 µM (inactive)

Compound: CCOc1ccc2nc(NC(=O)C(=O)C3C(=O)C(CC4C(=O)c5ccccc5C4=O)C(=O)CC3(C)C)sc2c1 (configuration not stated)
- GI50 [1]: > 100 µM (inactive)
- GI50 [3]: 87.5 µM (inactive)
- GI50 [4]: > 100 µM (inactive)
- GI50 [5]: > 100 µM (inactive)
- GI50 [6]: 80 µM (inactive)
- GI50 [7]: 30.8 µM (inactive)
- GI50 [8]: > 100 µM (inactive)
- GI50 [9]: > 100 µM (inactive)
- GI50 [10]: 32.9 µM (inactive)
- GI50 [11]: > 100 µM (inactive)
- GI50 [12]: 86.7 µM (inactive)
- GI50 [13]: > 100 µM
- GI50 [55]: 20.3 µM (inactive)
- GI50 [14]: > 100 µM (inactive)
- GI50 [15]: 34.6 µM (inactive)
- GI50 [16]: > 100 µM (inactive)
- GI50 [17]: > 100 µM (inactive)
- GI50 [18]: 44 µM (inactive)
- GI50 [20]: > 100 µM (inactive)
- GI50 [56]: > 100 µM (inactive)
- GI50 [21]: > 100 µM (inactive)
- GI50 [22]: > 100 µM (inactive)
- GI50 [23]: 24 µM (inactive)
- GI50 [24]: > 100 µM (inactive)
- GI50 [25]: > 100 µM (inactive)
- GI50 [26]: 13.5 µM (inactive)
- GI50 [28]: > 100 µM (inactive)
- GI50 [29]: 95.1 µM (inactive)
- GI50 [30]: > 100 µM (inactive)
- GI50 [31]: > 100 µM (inactive)
- GI50 [32]: > 100 µM (inactive)
- GI50 [33]: 66.7 µM (inactive)
- GI50 [34]: 56.1 µM (inactive)
- GI50 [35]: > 100 µM (inactive)
- GI50 [36]: > 100 µM (inactive)
- GI50 [37]: 65.8 µM (inactive)
- GI50 [39]: > 100 µM (inactive)
- GI50 [40]: > 100 µM (inactive)
- GI50 [41]: > 100 µM (inactive)
- GI50 [42]: > 100 µM (inactive)
- GI50 [57]: > 100 µM (inactive)
- GI50 [43]: > 100 µM (inactive)
- GI50 [44]: 96.4 µM (inactive)
- GI50 [45]: > 100 µM (inactive)
- GI50 [46]: > 100 µM (inactive)
- GI50 [47]: > 100 µM (inactive)
- GI50 [48]: > 100 µM (inactive)
- GI50 [50]: > 100 µM (inactive)
- GI50 [51]: > 100 µM (inactive)
- GI50 [52]: > 100 µM (inactive)
- GI50 [58]: > 100 µM (inactive)
- GI50 [53]: 90.4 µM (inactive)
- GI50 [54]: 18.9 µM (inactive)

Source: ChEMBL document CHEMBL1201862, “PubChem BioAssay data set” (2004)
